The source of these data is PMC12150283, “Synthesis of new Ag(I) and Cd(II) hydrozanomide-based complexes with antibacterial and anticancer properties” (RSC Advances, 2025).

In series [1] the test system is glioblastoma LN-229 cells. Kind of series: MTT cell viability assay. The format is cell-based, human. The conditions noted are these: 48 hours of incubation. The procedure: (§1) The glioblastoma cell lines LN-229 and U87 and the reference human normal skin fibroblast BJ were obtained from the American Type Culture Collection (ATCC). Cells were grown as monolayers when cultured in cell culture flasks and cultured in Dulbecco's Modified Eagle Medium (DMEM) – LN-229 and Eagle's Minimum Essential Medium (EMEM) – U87 and BJ, supplemented with 10% (v/v) fetal bovine serum, penicillin (10 000 U mL^−1), streptomycin (10 mg mL^−1) and amphotericin B (250 μg mL^−1). The cells were incubated at 37 °C, 5% CO2 atmosphere. The cells were maintained in the logarithmic growth phase by regular passage at 80% confluence.
(§2) The cytotoxicity of the tested compounds was evaluated against both human glioblastoma LN-229 and U-87 as well as normal BJ cell lines. The cells were plated in 96-well culture plates (2 × 10^4 well) and after 24 h incubation the cells were treated with the tested compounds in the concentration range 1–50 μM. The cells were cultured for the next 48 h. The cytotoxicity of the compounds was evaluated using the MTT colorimetric method as previously described.[28,29] IC50 values were determined using the AAT Bioquest IC50 calculator as the concentration of compounds capable of reducing cell viability by 50%. The experiment was performed in triplicate for each concentration. To examine the cytotoxic effect of compounds on cell morphology, cells were examined under an inverted phase contrast microscope Nikon Eclipse Ti with NIS Element software (Tokyo, Japan).

The test system of series [2] is glioblastoma U87 cells. Briefly: MTT cell viability assay. Format: cell-based, human. Conditions: 48 hours of incubation. The procedure: as §1, §2
Series [3] concerns normal skin fibroblast BJ cells. Briefly: MTT cell viability assay. The format is cell-based, human. The conditions noted are these: BJ normal fibroblasts, 48 hours of incubation. The procedure:
as §1, §2

The subject of series [4] is Escherichia coli ATCC 10530. Briefly: MIC determination. The conditions noted are these: Escherichia coli ATCC 10530; 18 h. The format is cell-based. The procedure:
(§3) The antibacterial activity of tested samples was assessed against both gram-positive bacteria (Staphylococcus aureus ATCC 25923, Staphylococcus aureus ATCC 6538, Staphylococcus epidermidis ATCC 12228, Enterococcus faecalis ATCC 29212, Listeria monocytogenes ATCC 19115, Bacillus subtilis ATCC 6633, Bacillus cereus ATCC 10876) and gram-negative bacteria (Escherichia coli ATCC 10530, Salmonella typhimurium ATCC 14028). Antibacterial properties were evaluated using both the dilution method (employing DMSO and 96-well plates) and the diffusion-well method (using Mueller Hinton Agar, Merck, Germany).
(§4) The minimum inhibitory concentrations (MICs) of the tested samples were evaluated against a panel of reference microorganisms obtained from the American Type Culture Collection (ATCC), including Gram-negative bacteria (Escherichia coli ATCC 10530, Salmonella typhimurium ATCC 14028), and Gram-positive bacteria (Staphylococcus aureus ATCC 25923, Staphylococcus aureus ATCC 6538, Staphylococcus epidermidis ATCC 12228, Enterococcus faecalis ATCC 29212, Listeria monocytogenes ATCC 19115, Bacillus subtilis ATCC 6633), and one strain (Bacillus cereus ŁOCK 0807) obtained from the Pure Culture of Industrial Microorganisms of the Institute of Fermentation Technology and Microbiology ŁOCK 105 (Łódź, Poland).
(§5) The microorganism cultures with a density of 1.5 × 10^8 CFU mL^−1 (corresponding to a McFarland standard of 0.5) were plated on Mueller–Hinton Agar (Merck, Germany) following the procedures recommended by the European Committee on Antimicrobial Susceptibility Testing (EUCAST).[47] Wells measuring 10 mm in diameter were cut into the medium. The tested compounds were dissolved in a DMSO solution, which was recommended due to their chemical structures. Subsequently, 100 μL of prepared solutions containing the tested compounds at concentrations ranging from x μg mL^−1 to x μg mL^−1 were added to each well. The plates were incubated at 30 °C (for Bacillus subtilis and Bacillus cereus) or 37 °C (for other bacteria) for 18 hours. After incubation, the minimum inhibitory concentration (MIC value) was determined (the lowest concentration of the tested compounds that prevents bacterial growth) and expressed in μg mL^−1. The experiment was conducted in three independent replicates. Ciprofloxacin (Sigma Aldrich, Saint Louis, MO, USA) was used as a reference antimicrobial agent against Gram-negative bacteria, while vancomycin (Sigma Aldrich, Saint Louis, MO, USA) was used as a reference antimicrobial agent against Gram-positive bacteria.

The subject of series [5] is Salmonella typhimurium ATCC 14028. Briefly: MIC determination. The format is cell-based. Conditions: 18 h. The procedure: as §3, §4, §5
Series [6] concerns Bacillus cereus ŁOCK 0807. Kind of series: MIC determination. Format: cell-based. The conditions noted are these: 18 h. The procedure: as §3, §4, §5
For series [7], the system named is Bacillus subtilis ATCC 6633. Kind of series: MIC determination. The format is cell-based. The procedure:
as §3, §4, §5

For series [8], the system named is Enterococcus faecalis ATCC 29212. Kind of series: MIC determination. Format: cell-based. Conditions: E. faecalis ATCC 29212, 18 h. The procedure: as §3, §4, §5
Series [9] concerns Listeria monocytogenes ATCC 19115. Briefly: MIC determination. The conditions noted are these: Listeria monocytogenes ATCC 19115, 18 h. Format: cell-based. The procedure: as §3, §4, §5
Series [10] relates to Staphylococcus aureus ATCC 25923. Kind of series: MIC determination. The conditions noted are these: S. aureus ATCC 25923, 18 h. The format is cell-based. The procedure: as §3, §4, §5
The test system of series [11] is Staphylococcus aureus ATCC 6538. Briefly: MIC determination. Conditions: S. aureus ATCC 6538, 18 h. The format is cell-based. The procedure:
as §3, §4, §5

In series [12] the test system is Staphylococcus epidermidis ATCC 12228. Briefly: MIC determination. Conditions: S. epidermidis ATCC 12228, 18 h. The format is cell-based. The procedure:
as §3, §4, §5

Series [13] deals with S. aureus ATCC 25923. Briefly: Diffusion-well method, inhibition zones. Format: cell-based, Staphylococcus aureus. The conditions noted are these: 500 µg/mL, wells 10 mm. The procedure:
as §3
(§6) 24 hour bacterial cultures with a density of 1–2 × 10^8 CFU mL^−1 were plated (0.1 mL) on Mueller–Hinton Agar (Merck, Germany). Subsequently, wells with a diameter of 10 mm were cut out from and filled with 100 μL of the tested compound at a concentration of 10–500 μg mL^−1 (diluted in DMSO). After an 18-hour incubation at either 30 °C (for Bacillus ssp.) or 37 °C (for other tested microorganisms), the inhibition zones around the wells were measured, and the results were expressed in millimetres (Table S9 ^†).

Series [14] deals with E. coli ATCC 10530. Kind of series: Diffusion-well method, inhibition zones. The format is cell-based, Escherichia coli. The conditions noted are these: 500 µg/mL, wells 10 mm. The procedure:
as §3, §6

Series [15] is described as follows: Time-dependent UV-vis solution stability in DMSO. The format is physicochemical. Conditions: 0 min to 48 h, room temperature. The text has this:
The stability of metal complexes is a crucial property that provides insight into their interactions with biological molecules, as it directly impacts their reactivity, bioavailability, and effectiveness in therapeutic applications. Additionally, the solubility of these complexes in dimethyl sulfoxide (DMSO) is of considerable importance, as solubility data are essential for optimizing storage conditions and ensuring compatibility with biological assays.[39] DMSO, a widely used solvent in drug discovery, serves as a medium that supports the stability and bioavailability of complexes under assay conditions, which is critical for maintaining the integrity of analytical protocols and enabling accurate assessments of biological activity. For the obtained complexes, the time-dependent UV-vis investigations in DMSO (Fig. 5 and S9 ^†) were carried out from 0 min to 48 h (0 min, 30 min, 1 h, 2 h, 3 h, 24 h, 48 h).
The sample solutions (50 μL (1.0 × 10^−3 M)) of the complexes were prepared in DMSO (Sigma Aldrich, ≥99.9%). The absorption spectra of the complexes were measured with increasing time (0 min, 30 min, 60 min, 2 h, 3 h, 24 h, 48 h) at room temperature. All measurements were performed on the Shimadzu UV-2401PC.

For series [16], the system named is S. aureus ATCC 6538. Kind of series: Diffusion-well method, inhibition zones. The format is cell-based, Staphylococcus aureus. The conditions noted are these: 500 µg/mL, wells 10 mm. The procedure: as §3, §6
In series [17] the test system is E. faecalis ATCC 29212. Kind of series: Diffusion-well method, inhibition zones. The conditions noted are these: 500 µg/mL, wells 10 mm. Format: cell-based, Enterococcus faecalis. The procedure:
as §3, §6

Series [18] has as its system B. cereus ŁOCK 0807. Kind of series: Diffusion-well method, inhibition zones. The format is cell-based, Bacillus cereus. The conditions noted are these: 500 µg/mL, wells 10 mm.
Series [19] has as its system L. monocytogenes ATCC 19115. Kind of series: Diffusion-well method, inhibition zones. Format: cell-based, Listeria monocytogenes. Conditions: 500 µg/mL, wells 10 mm. The procedure: as §3, §6

Each structure is given as a SMILES string. In brackets after ≈: the same amount, converted by molar mass. Like-named read-outs stand apart in the source and are kept apart here. A value given as a limit tells only on which side of the number the result lay.

As for `NC(=NN=Cc1ccccc1)c1cc(Cl)ccn1` [Complex L3, N′-(benzylidene)-4-chloropicolinohydrazonamide], the IC50 in series [1] (Homo sapiens) was > 50 µM; in series [2] (Homo sapiens, U-87 MG), > 50 µM; in [3] (Homo sapiens), > 50 µM.

Turning to `O=C(O)c1cn(C2CC2)c2cc(N3CCNCC3)c(F)cc2c1=O` [Ciprofloxacin, reference compound], the MIC in [4] and in series [5] (Salmonella enterica) was 1 µg/mL (≈ 3.02 µM) throughout.

On to `NC(=NN=Cc1ccccc1)c1cc(Cl)ccn1.[Cd+2].[Cl-].[Cl-]` [Complex 8, CdL3Cl2], for which the MIC was > 500 µg/mL in series [6] (Bacillus cereus ŁOCK 0807); > 500 µg/mL in series [7] (18 h); > 500 µg/mL in [8]; 10 µg/mL in series [4]; > 500 µg/mL in series [9]; > 500 µg/mL in [5] (S. typhimurium ATCC 14028). Moreover, the MIC is 100 µg/mL in [10], 500 µg/mL in series [11] and > 500 µg/mL in series [12]. Further, the figures for the Inhibition zone in series [13] and in series [14] were 15 mm and 20 mm, respectively. The IC50 in [1] is > 50 µM; in series [2], 10.9 ± 3.8 µM; in [3], 25.8 ± 4.48 µM. Besides, in series [15], the hypochromic effect is 36.3%. Also, the “shift of peak maxima” value in series [15] came to 4 nm.

With `CN[C@H](CC(C)C)C(=O)N[C@H]1C(=O)N[C@@H](CC(N)=O)C(=O)N[C@H]2C(=O)N[C@H]3C(=O)N[C@H](C(=O)N[C@H](C(=O)O)c4cc(O)cc(O)c4-c4cc3ccc4O)[C@H](O)c3ccc(c(Cl)c3)Oc3cc2cc(c3O[C@@H]2O[C@H](CO)[C@@H](O)[C@H](O)[C@H]2O[C@H]2C[C@](C)(N)[C@H](O)[C@H](C)O2)Oc2ccc(cc2Cl)[C@H]1O` [Vancomycin, vancomycin, reference compound], the minimum inhibitory concentration (MIC) was found to be 1 µg/mL (≈ 0.69 µM) in series [6] (Bacillus cereus); 1 µg/mL (≈ 0.69 µM) in series [7] (ATCC6633, 18 h, read-out: MIC); 1 µg/mL (≈ 0.69 µM) in series [8] (Enterococcus faecalis, ATCC29212, read-out: MIC); 2 µg/mL (≈ 1.38 µM) in series [9] (ATCC19115, read-out: MIC); 1 µg/mL (≈ 0.69 µM) in series [10] (Staphylococcus aureus, ATCC25923, read-out: MIC); 1 µg/mL (≈ 0.69 µM) in series [11] (Staphylococcus aureus, ATCC6538, read-out: MIC). Besides, in series [12] (Staphylococcus epidermidis, ATCC12228, read-out: MIC), the MIC is 1 µg/mL (≈ 0.69 µM).

With `N/C(=N\N=C\c1ccc([N+](=O)[O-])cc1)c1cccc(Cl)n1` [Complex L2, 6-chloro-N′-(4-nitrobenzylidene) picolinohydrazonamide], the IC50 is 40.8 ± 6.12 µM in series [1] (Homo sapiens); > 50 µM in series [2] (Homo sapiens, U-87 MG); 35.5 ± 4.33 µM in series [3] (Homo sapiens).

On to `NC(=NN=Cc1ccc([N+](=O)[O-])cc1)c1cccc(N2CCCC2)n1.[Cd+2].[Cl-].[Cl-]` [Complex 9, CdL4Cl2], for which the MIC in series [6] (Bacillus cereus ŁOCK 0807) was 250 µg/mL; in series [7] (18 h), > 500 µg/mL; in series [8], 10 µg/mL; in series [4] it was 10 µg/mL; in series [9] it was 500 µg/mL; in series [5] (S. typhimurium ATCC 14028) it was > 500 µg/mL. The MIC in [10] was 10 µg/mL; in series [11], 250 µg/mL; in series [12], > 500 µg/mL. In addition, the Inhibition zone is 16 mm in series [13]; 13 mm in series [16]; 14 mm in series [17]; 13 mm in series [18]; 12 mm in series [19]; 20 mm in series [14]. Further, the IC50 was 45.3 ± 2.18 µM in series [1], > 50 µM in [2] and 1.05 ± 0.32 µM in series [3].

Consider `N.N.[Cl][Pt][Cl]` [Cisplatin, reference compound], for which the IC50 was 29.09 ± 0.23 µM in [1], 39.6 ± 1.13 µM in series [2] and > 50 µM in series [3].
